US20170334899A1, “AMINO-SUBSTITUTED ISOTHIAZOLES” (Bayer Pharma Aktiengesellschaft, priority 2014, published 2017)
pIC50: −log10 of the molar value.

Key:
CDK2/CycE = biological target: T1, CDK2/CycE (Homo sapiens, UniProt P24941); assay: CDK2/CycE kinase assay (TR-FRET); assay type: biochemical; conditions: avg, read-out: CDK2 avg (IC50 [mol/l])
T1 construct: GST; purchased ProQinase GmbH (Freiburg, Germany); host or cells: insect cells (Sf9)
Summary of the method: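 GST-tagged human CDK2 and CycE from Sf9 cells, preincubated 15 min with compound, then 25 min at 22° C. with 10 μM ATP and 0.75 μM biotinylated Rb-derived peptide (final). Phospho-substrate read by TR-FRET (anti-pRB pSer807/pSer811, Eu anti-mouse IgG, streptavidin-XL665), 665/620 nm ratio, normalised to no-inhibitor and no-enzyme controls.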

[1] = biological target: T2, catalytic domain of human Bub1 (amino acids 704-1085) (Homo sapiens, UniProt O43683); assay: Bub1 kinase assay (TR-FRET); assay type: biochemical; conditions: 10 μM ATP, avg, read-out: Bub1 avg (IC50 [mol/l])
T2 construct: catalytic domain of human Bub1 (amino acids 704-1085); His6 (N); made in house; host or cells: insect cells (Hi5)
T2 sequence (O43683 704-1085): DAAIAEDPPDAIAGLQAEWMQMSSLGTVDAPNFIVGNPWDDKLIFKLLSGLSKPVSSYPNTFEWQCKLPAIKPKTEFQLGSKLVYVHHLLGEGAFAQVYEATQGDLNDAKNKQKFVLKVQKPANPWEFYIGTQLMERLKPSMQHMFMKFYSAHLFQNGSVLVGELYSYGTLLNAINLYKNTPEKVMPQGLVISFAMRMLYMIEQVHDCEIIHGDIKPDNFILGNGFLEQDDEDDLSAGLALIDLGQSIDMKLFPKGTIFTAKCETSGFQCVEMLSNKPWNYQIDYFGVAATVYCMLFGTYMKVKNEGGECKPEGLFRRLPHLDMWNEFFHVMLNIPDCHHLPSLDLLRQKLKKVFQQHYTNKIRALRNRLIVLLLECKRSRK
Summary of the method: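 Readout is the 665/620 nm TR-FRET ratio from anti-phosphoserine antibody, Eu-labelled anti-mouse IgG and streptavidin-XL665, scaled between no-enzyme and uninhibited controls. Reaction: 1 μM biotinylated peptide, 10 μM ATP, 60 min, 22 °C, after 15 min compound preincubation with His6-Bub1 (704-1085, insect-expressed, ~200 ng/ml).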

SMILES	pIC50 (CDK2/CycE)	pIC50 [1]
Cc1nsc(Nc2cnc(C(F)(F)F)cn2)c1C(=O)Nc1ccc(CCC2CCN(CC(F)F)CC2)nc1 [Example 356, N-(6-{2-[1-(2,2-difluoroethyl)piperidin-4-yl]ethyl}pyridin-3-yl)-3-methyl-5-{[5-(trifluoromethyl)pyrazin-2-yl]amino}-1,2-thiazole-4-carboxamide]	< 4.70	< 4.70
Cc1nsc(Nc2cnc(C(F)(F)F)cn2)c1C(=O)Nc1ccc(C2CCN(CC(F)F)CC2)nc1 [Example 357, N-{6-[1-(2,2-difluoroethyl)piperidin-4 yl]pyridin-3-yl}-3-methyl-5-{[5-(trifluoromethyl)pyrazin-2-yl]amino}-1,2-thiazole-4-carboxamide]	< 4.70	< 4.70
Cc1nsc(Nc2cnc(C(F)(F)F)cn2)c1C(=O)Nc1ccc(C2CCN(CC(F)(F)F)CC2)nc1 [Example 358, 3-methyl-N-{6-[1-(2,2,2-trifluoroethyl)piperidin-4-yl]pyridin-3-yl}-5-{[5-(trifluoromethyl)pyrazin-2-yl]amino}-1,2-thiazole-4-carboxamide]	< 4.70	< 4.70
Cc1nsc(Nc2cnc(C(F)(F)F)cn2)c1C(=O)Nc1ccc(N2CCN(CC(F)F)CC2)nc1 [Example 359, N-{6-[4-(2,2-difluoroethyl)piperazin-1-yl]pyridin-3-yl}-3-methyl-5-{[5-(trifluoromethyl)pyrazin-2-yl]amino}-1,2-thiazole-4-carboxamide]	< 4.70	< 4.70
Cc1nsc(Nc2cnc(C(F)(F)F)cn2)c1C(=O)Nc1ccc(N2CCN(CC(F)(F)F)CC2)nc1 [Example 360, 3-methyl-N-{6-[4-(2,2,2-trifluoroethyl)piperazin-1-yl]pyridin-3-yl}-5-{[5-(trifluoromethyl)pyrazin-2-yl]amino}-1,2-thiazole-4-carboxamide]	< 4.70	< 4.70
Cc1nsc(Nc2cnc(C(F)(F)F)cn2)c1C(=O)Nc1ccc(N2CCN(CCC(F)(F)F)CC2)nc1 [Example 361, 3-methyl-5-{[5-(trifluoromethyl)pyrazin-2-yl]amino}-N-{6-[4-(3,3,3-trifluoropropyl)piperazin-1-yl]pyridin-3-yl}-1,2-thiazole-4-carboxamide]	< 4.70	< 4.70
Cc1nsc(Nc2cnc(C(F)(F)F)cn2)c1C(=O)Nc1ccc(O[C@H]2CCN(CC(F)F)C[C@@H]2F)nc1 [Example 362]	< 4.70	4.85
Cc1nsc(Nc2cnc(C(F)(F)F)cn2)c1C(=O)Nc1ccc(O[C@H]2CCN(CC(F)(F)F)C[C@@H]2F)nc1 [Example 363, N-(6-{[(3S,4S)-3-fluoro-1-(2,2,2-trifluoroethyl)piperidin-4-yl]oxy}pyridin-3-yl)-3-methyl-5-{[5-(trifluoromethyl)pyrazin-2-yl]amino}-1,2-thiazole-4-carboxamide]	< 4.70	< 4.70
Cc1nsc(Nc2cnc(C(F)(F)F)cn2)c1C(=O)Nc1ccc(O[C@H]2CCN(CCC(F)(F)F)C[C@@H]2F)nc1 [Example 364, N-(6-{[(3S,4S)-3-fluoro-1-(3,3,3-trifluoropropyl)piperidin-4-yl]oxy}pyridin-3-yl)-3-methyl-5-{[5-(trifluoromethyl)pyrazin-2-yl]amino}-1,2-thiazole-4-carboxamide]	< 4.70	< 4.70
CCN1CC[C@H](Oc2ccc(NC(=O)c3c(C)nsc3Nc3cnc(C(F)(F)F)cn3)cn2)[C@@H](F)C1 [Example 365, N-(6-{[(3S,4S)-1-ethyl-3-fluoropiperidin-4-yl]oxy}pyridin-3-yl)-3-methyl-5-{[5-(trifluoromethyl)pyrazin-2-yl]amino}-1,2-thiazole-4-carboxamide]	< 4.70	4.80
Cc1nsc(Nc2cnc(C(F)(F)F)cn2)c1C(=O)Nc1ccc(O[C@@H]2CCN(CC(F)(F)F)C[C@H]2F)nc1 [Example 367, N-(6-{[(3R,4R)-3-fluoro-1-(2,2,2-trifluoroethyl)piperidin-4-yl]oxy}pyridin-3-yl)-3-methyl-5-{[5-(trifluoromethyl)pyrazin-2-yl]amino}-1,2-thiazole-4-carboxamide]	< 4.70	< 4.70
Cc1nsc(Nc2cnc(C(F)(F)F)cn2)c1C(=O)Nc1ccc(O[C@@H]2CCN(CCC(F)(F)F)C[C@H]2F)nc1 [Example 368, N-(6-{[(3R,4R)-3-fluoro-1-(3,3,3-trifluoropropyl)piperidin-4-yl]oxy}pyridin-3-yl)-3-methyl-5-{[5-(trifluoromethyl)pyrazin-2-yl]amino}-1,2-thiazole-4-carboxamide]	< 4.70	< 4.70
CCN1CC[C@@H](Oc2ccc(NC(=O)c3c(C)nsc3Nc3cnc(C(F)(F)F)cn3)cn2)[C@H](F)C1 [Example 369, N-(6-{[(3R,4R)-1-ethyl-3-fluoropiperidin-4-yl]oxy}pyridin-3-yl)-3-methyl-5-{[5-(trifluoromethyl)pyrazin-2-yl]amino}-1,2-thiazole-4-carboxamide]	< 4.70	< 4.70
CCCN1CC[C@H](Oc2ccc(NC(=O)c3c(C)nsc3Nc3cnc(C(F)(F)F)cn3)cn2)[C@@H](F)C1 [Example 370, N-(6-{[(3S,4S)-3-fluoro-1-propylpiperidin-4-yl]oxy}pyridin-3-yl)-3-methyl-5-{[5-(trifluoromethyl)pyrazin-2-yl]amino}-1,2-thiazole-4-carboxamide]	< 4.70	< 4.70
CCCN1CC[C@@H](Oc2ccc(NC(=O)c3c(C)nsc3Nc3cnc(C(F)(F)F)cn3)cn2)[C@H](F)C1 [Example 371, N-(6-{[(3R,4R)-3-fluoro-1-propylpiperidin-4-yl]oxy}pyridin-3-yl)-3-methyl-5-{[5-(trifluoromethyl)pyrazin-2-yl]amino}-1,2-thiazole-4-carboxamide]	< 4.70	< 4.70

Continued, values first:

pIC50 (CDK2/CycE)	pIC50 [1]	SMILES
< 4.70	< 4.70	Cc1nsc(Nc2cnc(C(F)(F)F)cn2)c1C(=O)Nc1ccc(N2CCN(CC(F)F)CC2)cn1 [Example 372, N-{5-[4-(2,2-difluoroethyl)piperazin-1-yl]pyridin-2-yl}-3-methyl-5-{[5-(trifluoromethyl)pyrazin-2-yl]amino}-1,2-thiazole-4-carboxamide]
< 4.70	< 4.70	Cc1nsc(Nc2cnc(C(F)(F)F)cn2)c1C(=O)Nc1ccc(N2CCN(CC(F)(F)F)CC2)cn1 [Example 373, 3-methyl-N-{5-[4-(2,2,2-trifluoroethyl)piperazin-1-yl]pyridin-2-yl}-5-{[5-(trifluoromethyl)pyrazin-2-yl]amino}-1,2-thiazole-4-carboxamide]
< 4.70	< 4.70	Cc1nsc(Nc2cnc(C(F)(F)F)cn2)c1C(=O)Nc1ccc(N2CCN(CCC(F)(F)F)CC2)cn1 [Example 374, 3-methyl-5-{[5-(trifluoromethyl)pyrazin-2-yl]amino}-N-{5-[4-(3,3,3-trifluoropropyl)piperazin-1-yl]pyridin-2-yl}-1,2-thiazole-4-carboxamide]
< 4.70	< 4.70	Cc1nsc(Nc2cnc(C(F)(F)F)cn2)c1C(=O)Nc1ccc(OC[C@@H]2CCCN(CC(F)F)C2)nc1 [Example 375, N-(6-{[(3R)-1-(2,2-difluoroethyl)piperidin-3-yl]methoxy}pyridin-3-yl)-3-methyl-5-{[5-(trifluoromethyl)pyrazin-2-yl]amino}-1,2-thiazole-4-carboxamide]
< 4.70	< 4.70	Cc1nsc(Nc2cnc(C(F)(F)F)cn2)c1C(=O)Nc1ccc(OC[C@@H]2CCCN(CC(F)(F)F)C2)nc1 [Example 376, 3-methyl-N-(6-{[(3R)-1-(2,2,2-trifluoroethyl)piperidin-3-yl]methoxy}pyridin-3-yl)-5-{[5-(trifluoromethyl)pyrazin-2-yl]amino}-1,2-thiazole-4-carboxamide]
< 4.70	< 4.70	Cc1nsc(Nc2cnc(C(F)(F)F)cn2)c1C(=O)Nc1ccc(OC[C@@H]2CCCN(CCC(F)(F)F)C2)nc1 [Example 377, 3-methyl-5-{[5-(trifluoromethyl)pyrazin-2-yl]amino}-N-(6-{[(3R)-1-(3,3,3-trifluoropropyl)piperidin-3-yl]methoxy}pyridin-3-yl)-1,2-thiazole-4-carboxamide]
< 4.70	≤ 4.70	Cc1nsc(Nc2cnc(C(F)(F)F)cn2)c1C(=O)Nc1ccc(O[C@@H]2CCN(CC(F)F)C2)nc1 [Example 379, N-(6-{[(3R)-1-(2,2-difluoroethyl)pyrrolidin-3-yl]oxy}pyridin-3-yl)-3-methyl-5-{[5-(trifluoromethyl)pyrazin-2-yl]amino}-1,2-thiazole-4-carboxamide]
< 4.70	< 4.70	Cc1nsc(Nc2cnc(C(F)(F)F)cn2)c1C(=O)Nc1ccc(O[C@@H]2CCN(CC(F)(F)F)C2)nc1 [Example 380, 3-methyl-N-(6-{[(3R)-1-(2,2,2-trifluoroethyl)pyrrolidin-3-yl]oxy}pyridin-3-yl)-5-{[5-(trifluoromethyl)pyrazin-2-yl]amino}-1,2-thiazole-4-carboxamide]
< 4.70	< 4.70	Cc1nsc(Nc2cnc(C(F)(F)F)cn2)c1C(=O)Nc1ccc(O[C@@H]2CCN(CCC(F)(F)F)C2)nc1 [Example 381, 3-methyl-5-{[5-(trifluoromethyl)pyrazin-2-yl]amino}-N-(6-{[(3R)-1-(3,3,3-trifluoropropyl)pyrrolidin-3-yl]oxy}pyridin-3-yl)-1,2-thiazole-4-carboxamide]
